# Biological target: T1, Prostaglandin G/H synthase 1 (Ovis aries, UniProt P05979)
# T1 sequence (P05979 whole entry): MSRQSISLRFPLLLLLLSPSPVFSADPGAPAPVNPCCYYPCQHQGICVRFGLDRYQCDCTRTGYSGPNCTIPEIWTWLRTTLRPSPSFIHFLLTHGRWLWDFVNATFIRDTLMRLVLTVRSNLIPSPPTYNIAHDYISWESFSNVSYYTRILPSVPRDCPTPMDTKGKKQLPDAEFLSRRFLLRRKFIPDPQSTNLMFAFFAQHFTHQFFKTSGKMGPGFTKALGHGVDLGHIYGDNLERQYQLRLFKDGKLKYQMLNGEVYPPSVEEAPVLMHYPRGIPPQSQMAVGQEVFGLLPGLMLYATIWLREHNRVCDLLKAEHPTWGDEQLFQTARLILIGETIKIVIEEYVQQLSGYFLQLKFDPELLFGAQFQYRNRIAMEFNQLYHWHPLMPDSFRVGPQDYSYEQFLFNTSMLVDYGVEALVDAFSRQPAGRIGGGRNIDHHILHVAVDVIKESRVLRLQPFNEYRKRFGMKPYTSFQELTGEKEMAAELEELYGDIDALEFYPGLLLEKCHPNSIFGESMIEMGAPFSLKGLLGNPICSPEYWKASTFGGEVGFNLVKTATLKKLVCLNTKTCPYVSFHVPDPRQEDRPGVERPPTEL
# Description: Inhibition of ovine COX1 by chemiluminescent assay
row,IC50 [µM],SMILES
1,21.5,CS(=O)(=O)c1ccc(NC(=O)Nc2ccc(Cl)cc2)cc1
2,21.8,CS(=O)(=O)c1ccc(NC(=O)Nc2ccc(F)cc2)cc1
3,12.5,Cc1ccc(NC(=O)Nc2ccc(S(C)(=O)=O)cc2)cc1
4,9.2,CS(=O)(=O)c1ccc(NC(=O)Nc2ccccc2)cc1
5,22.4,COc1ccc(NC(=O)Nc2ccc(S(C)(=O)=O)cc2)cc1
